For 28 compounds, pest or weed control results are on record in patent publication US9957252B2, “Metalloenzyme inhibitor compounds as fungicides” (Dow AgroSciences LLC, priority 2014, dated 2018).

Read-outs that look alike come from different tables or passages of the source.

Common to all, as to format: in vivo, Mycosphaerella graminicola on wheat plants (variety Yuma)
Test [1] has as its system standard laboratory SEPTTR isolate (SI SEPTTR); Mycosphaerella graminicola; Anamorph: Septoria tritici. In words: Leaf blotch of wheat fungicidal activity, Type A assay (technical grade in acetone/water with Triton X-100, booth sprayer), standard laboratory isolate. The settings on record: Zymoseptoria tritici, 24 h, 1 Day Protectant, wheat seedlings (Yuma), read-out: Disease control, SI SEPTTR Type A Assay (50 ppm) 1DP. The method, then: (§1) Evaluation of Fungicidal Activity: Leaf Blotch of Wheat (Mycosphaerella graminicola; Anamorph: Septoria tritici; Bayer code SEPTTR):
(§2) For Type A assays, technical grades of the experimental fungicides in Table 4 below were dissolved in acetone, and then mixed with nine volumes of water containing 110 ppm Triton X-100. The fungicide solutions were applied onto wheat seedlings using an automated booth sprayer. For Type B assays, emulsifiable concentrate (EC) formulations of technical grades of experimental fungicides in Table 4 below were prepared at 10% (w/v), and then mixed with 150 volumes of 0.1% Trycol 5941. The fungicide solutions were applied onto wheat seedlings using an automated track sprayer at 200 L/ha. All sprayed plants were allowed to air dry prior to further handling.
(§3) Wheat plants (variety Yuma) were grown from seed in a greenhouse in 50% mineral soil/50% soil-less Metro mix until the first leaf was fully emerged, with 7-10 seedlings per pot. Prior to or after application of experimental fungicides, plants were inoculated either with spores of a standard laboratory SEPTTR isolate (SI SEPTTR) or with spores from a SEPTTR field isolate collected from Wellsbourne, England in 2012 (FI SEPTTR). After inoculation, the plants were kept for 3 days at 20° C. in 100% relative humidity (one day in a dark dew chamber followed by two days in a lighted dew chamber). Plants were then transferred to a 20° C. greenhouse for disease development. When disease symptoms were fully expressed on untreated plants, infection levels on treated plants were assessed on a scale of 0 to 100 percent disease severity. Percent disease control was calculated using the ratio of disease severity on treated plants relative to untreated plants.

For test [2] the test system is unchanged. The test can be described thus: Leaf blotch of wheat fungicidal activity, Type B assay (10% EC formulation in 0.1% Trycol 5941, track sprayer 200 L/ha), standard laboratory isolate. As to conditions: Zymoseptoria tritici, 72 h, wheat seedlings (Yuma). As for the experimental part:
as §1, §2, §3

Test [3] in a line: Leaf blotch of wheat fungicidal activity, Type B assay (10% EC formulation in 0.1% Trycol 5941, track sprayer 200 L/ha), field isolate. The settings on record: Zymoseptoria tritici, 72 h, field isolate (Wellsbourne, England 2012), wheat seedlings (Yuma). The method, then:
as §1, §2, §3

Where [4] appears, read: 3 Day Curative, read-out: Disease control, SI SEPTTR Type B Assay (100 g/ha) 3DC.
The mark [5] stands for this setting: 3 Day Protectant, read-out: Disease control, SI SEPTTR Type B Assay (100 g/ha) 3DP.
[6] abbreviates: 3 Day Curative, read-out: Disease control, FI SEPTTR Type B Assay (100 g/ha) 3DC.
Setting [7] is: 3 Day Protectant, read-out: Disease control, FI SEPTTR Type B Assay (100 g/ha) 3DP.

`CC(C)(C)C(O)(c1ccc(-c2ccc(OC(F)(F)F)cc2)cc1)c1cncnc1` (stereo not shown) [Compound 1, 2,2-dimethyl-1-(pyrimidin-5-yl)-1-(4′-(trifluoromethoxy)-[1,1′-biphenyl]-4-yl)propan-1-ol]: the pest or weed control at 50 ppm in test [1] was 80 to 100%. The pest or weed control at 100 g/ha in test [2] (setting [4]), in test [2] (setting [5]), in test [3] (setting [6]) and in test [3] (setting [7]) was 80 to 100% throughout.

Consider `CC(C)(C)C(O)(c1cncnc1)c1ccc(-c2ccc(OCC(F)(F)F)cc2)cc1F` (stereo not shown) [Compound 26], for which, in test [1], the pest or weed control at 50 ppm was 80 to 100%. The pest or weed control at 100 g/ha in test [2] (setting [4]), in test [2] (setting [5]), in test [3] (setting [6]) and in test [3] (setting [7]) was 80 to 100% throughout.

Turning to `CC(C)(C)C(O)(c1cncnc1)c1ccc(-c2ccc(OC(F)(F)F)cc2)cc1Cl` (stereo not shown) [Compound 8], the pest or weed control at 50 ppm in test [1] fell in the range of 80 to 100%. Further, the pest or weed control at 100 g/ha in test [2] (setting [4]), in test [2] (setting [5]), in test [3] (setting [6]) and in test [3] (setting [7]) was 80 to 100% each time.

Consider `CC(C)(C)C(O)(c1ccc(-c2ccc(C3(C#N)CC3)cc2)cc1)c1cncnc1` (stereo not shown) [Compound 32], for which the pest or weed control at 50 ppm in test [1] was in the range of 80 to 100%. Moreover, the pest or weed control at 100 g/ha in test [2] (setting [4]) lay in the range of 80 to 100%; in test [2] (setting [5]), 80 to 100%; in test [3] (setting [6]) it was 60 to 79%; in test [3] (setting [7]), 80 to 100%.

Turning to `CC(C)(C)C(O)(c1cncnc1)c1ccc(-c2ccc(OCC(F)(F)F)cc2)cc1Cl` (stereo not shown) [Compound 25], in test [1], the pest or weed control at 50 ppm fell in the range of 80 to 100%. Further, the pest or weed control at 100 g/ha lay in the range of 80 to 100% in test [2] (setting [4]), 60 to 79% in test [2] (setting [5]), 80 to 100% in test [3] (setting [6]) and 80 to 100% in test [3] (setting [7]).

As for `CC(C)(C)C(O)(c1cncnc1)c1ccc(-c2ccc(C(F)(F)F)cc2F)cc1Cl` (stereo not shown) [Compound 30], the pest or weed control at 50 ppm in test [1] lay within 80 to 100%. Moreover, the pest or weed control at 100 g/ha in test [2] (setting [4]), in test [2] (setting [5]), in test [3] (setting [6]) and in test [3] (setting [7]) was 80 to 100% in each case.

In the case of `CC(C)(C)C(O)(c1cncnc1)c1ccc(-c2ccc(Cl)cc2)cc1Cl` (stereo not shown) [Compound 22], the pest or weed control at 100 g/ha in test [2] (setting [4]), in test [2] (setting [5]), in test [3] (setting [6]) and in test [3] (setting [7]) was 80 to 100% throughout.

With `CC(C)(C)C(O)(c1cncnc1)c1ccc(-c2ccc(C#N)cc2)cc1Cl` (stereo not shown) [Compound 9], the pest or weed control at 50 ppm in test [1] was in the range of 80 to 100%. The pest or weed control at 100 g/ha in test [2] (setting [4]) lay within 80 to 100%; in test [2] (setting [5]) it was 60 to 79%; in test [3] (setting [6]), 80 to 100%; in test [3] (setting [7]), 80 to 100%.

In the case of `CC(C)(C)C(O)(c1cncnc1)c1ccc(-c2ccc(C(F)(F)F)nc2)cc1F` (stereo not shown) [Compound 24], the pest or weed control at 100 g/ha in test [2] (setting [4]), in test [2] (setting [5]), in test [3] (setting [6]) and in test [3] (setting [7]) was 80 to 100% in each case.

With `CC(C)(C)C(O)(c1ccc(-c2ccc(SC(F)(F)F)cc2)cc1)c1cncnc1` (stereo not shown) [Compound 19], the pest or weed control at 100 g/ha in test [2] (setting [4]) was in the range of 80 to 100%; in test [2] (setting [5]) it was 60 to 79%; in test [3] (setting [6]), 80 to 100%; in test [3] (setting [7]), 80 to 100%.

With `CC(C)(C)C(O)(c1cncnc1)c1ccc(-c2ccc(C#N)cc2)cc1F` (stereo not shown) [Compound 17], the pest or weed control at 100 g/ha in test [2] (setting [4]), in test [2] (setting [5]), in test [3] (setting [6]) and in test [3] (setting [7]) was 80 to 100% each time.

As for `CC(C)(C)C(O)(c1ccc(-c2ccc(OCC(F)(F)F)cc2)cc1)c1cncnc1` (stereo not shown) [Compound 14], the pest or weed control at 50 ppm in test [1] was 80 to 100%. Also, the pest or weed control at 100 g/ha is 80 to 100% in test [2] (setting [4]), 80 to 100% in test [2] (setting [5]), 80 to 100% in test [3] (setting [6]) and 60 to 79% in test [3] (setting [7]).

In the case of `CC(C)(C)C(O)(c1cncnc1)c1ccc(-c2ccc(OC(F)F)cc2)cc1F` (stereo not shown) [Compound 16], the pest or weed control at 100 g/ha in test [2] (setting [4]), in test [2] (setting [5]), in test [3] (setting [6]) and in test [3] (setting [7]) was 80 to 100% throughout.

As to `CC(C)(C)C(O)(c1ccc(-c2ccc(OC(F)F)cc2)cc1)c1cncnc1` (stereo not shown) [Compound 2], in test [1], the pest or weed control at 50 ppm is 80 to 100%. Further, the pest or weed control at 100 g/ha in test [2] (setting [4]), in test [2] (setting [5]), in test [3] (setting [6]) and in test [3] (setting [7]) was 80 to 100% throughout.

Regarding `CC(C)(C)C(O)(c1ccc(-c2ccc(C#N)cc2)cc1)c1cncnc1` (stereo not shown) [Compound 3], the pest or weed control at 50 ppm in test [1] was in the range of 80 to 100%. The pest or weed control at 100 g/ha was 60 to 79% in test [2] (setting [4]), 60 to 79% in test [2] (setting [5]), 80 to 100% in test [3] (setting [6]) and 60 to 79% in test [3] (setting [7]).

As for `Cc1cc(-c2ccc(C#N)cc2)ccc1C(O)(c1cncnc1)C(C)(C)C` (stereo not shown) [Compound 37], in test [1], the pest or weed control at 50 ppm lay within 80 to 100%.

Regarding `CC(C)(C)C(O)(c1ccc(-c2ccccc2OC(F)(F)F)cc1)c1cncnc1` (stereo not shown) [Compound 12], the pest or weed control at 50 ppm in test [1] fell in the range of 60 to 79%.

Take `Cc1cc(OC(F)(F)F)ccc1-c1ccc(C(O)(c2cncnc2)C(C)(C)C)c(C)c1` (stereo not shown) [Compound 40]: in test [1], the pest or weed control at 50 ppm fell in the range of 80 to 100%.

As to `CC(C)(C)C(O)(c1cncnc1)c1ccc(-c2ccc(OC(F)F)cc2)cc1Cl` (stereo not shown) [Compound 10], in test [1], the pest or weed control at 50 ppm was 80 to 100%. The pest or weed control at 100 g/ha in test [2] (setting [4]) is 80 to 100%; in test [2] (setting [5]), 80 to 100%; in test [3] (setting [6]), 80 to 100%; in test [3] (setting [7]) it was 60 to 79%.

`CC(C)(C)C(O)(c1ccc(-c2ccc(OC(F)(F)F)cc2)cc1)c1cccnc1` (stereo not shown) [Compound 54]: the pest or weed control at 50 ppm in test [1] was 80 to 100%.

With `COc1cc(-c2ccc(C(C)(C)C)cc2)ccc1C(O)(c1cncnc1)C(C)(C)C` (stereo not shown) [Compound 51], the pest or weed control at 50 ppm in test [1] fell in the range of 80 to 100%.

Take `CC(C)(C)C(O)(c1ccc(-c2ccc(C(F)(F)F)cc2F)cc1)c1cncnc1` (stereo not shown) [Compound 29]: the pest or weed control at 50 ppm in test [1] is 80 to 100%.

For the compound `Cc1cc(-c2ccc(SC(F)(F)F)cc2)ccc1C(O)(c1cncnc1)C(C)(C)C` (stereo not shown) [Compound 35], the pest or weed control at 50 ppm in test [1] was in the range of 80 to 100%.

For the compound `COc1cc(-c2ccc(C#N)cc2)ccc1C(O)(c1cncnc1)C(C)(C)C` (stereo not shown) [Compound 47], in test [1], the pest or weed control at 50 ppm lay in the range of 80 to 100%.

For `CC(C)(C)C(O)(c1ccc(-c2cccc(OC(F)(F)F)c2)cc1)c1cncnc1` (stereo not shown) [Compound 11], the pest or weed control at 50 ppm in test [1] is 80 to 100%. The pest or weed control at 100 g/ha in test [2] (setting [4]) was 60 to 79%; in test [2] (setting [5]), 80 to 100%; in test [3] (setting [6]), 60 to 79%; in test [3] (setting [7]), 60 to 79%.

For `CC(C)(C)C(O)(c1cncnc1)c1ccc(-c2ccc(OC(F)(F)F)cc2)cc1F` (stereo not shown) [Compound 15], the pest or weed control at 100 g/ha in test [2] (setting [4]) fell in the range of 80 to 100%; in test [2] (setting [5]), 80 to 100%; in test [3] (setting [6]), 60 to 79%; in test [3] (setting [7]), 80 to 100%.

Turning to `CC(C)(C)C(O)(c1cncnc1)c1ccc(-c2ccc(C(F)(F)F)nc2)cc1Cl` (stereo not shown) [Compound 23], the pest or weed control at 100 g/ha in test [2] (setting [4]), in test [2] (setting [5]), in test [3] (setting [6]) and in test [3] (setting [7]) was 80 to 100% each time.

As to `CC(C)(C)C(O)(c1cncnc1)c1ccc(-c2ccccc2)cc1F` (stereo not shown) [Compound 28], the pest or weed control at 50 ppm in test [1] was in the range of 80 to 100%.
